Data: the NIST ThermoML archive (doi:10.1016/j.fluid.2009.02.001)
Values joined by “and” are separate entries in the source; they are usually repeats but may differ in a detail not shown here. Equal values may be shown once.

Columns and labels:
[1] = for vapor or sublimation pressure: Liquid; for Normal melting temperature: Crystal, DTA
[2] = Molar enthalpy of transition or fusion; settings: Crystal; DSC

CCOc1ccc(NC(C)=O)cc1 [N-(4-ethoxyphenyl)ethanamide]
vapor or sublimation pressure, [1]
Settings	Isothermal thermogravimetry	Nonisothermal thermogravimetry
418.2 K	–	0.088 kPa
420.2 K	–	0.087 kPa
422.2 K	–	0.102 kPa
424.3 K	–	0.106 kPa
426.2 K	–	0.146 kPa
428.2 K	–	0.146 kPa
430.3 K	–	0.162 kPa
432.3 K	–	0.171 kPa
434.3 K	–	0.199 kPa
438.2 K	–	0.247 kPa
440.2 K	–	0.259 kPa
442.2 K	–	0.309 kPa
444.2 K	–	0.329 kPa
446.2 K	–	0.401 kPa
448.2 K	–	0.396 kPa
450.2 K	–	0.452 kPa
452.2 K	–	0.479 kPa
454.2 K	–	0.538 kPa
456.3 K	–	0.589 kPa
458.2 K	–	0.643 kPa
460.2 K	–	0.707 kPa
460.3 K	0.821 kPa	–
461.1 K	0.829 kPa	–
461.9 K	0.815 kPa	–
462.2 K	0.899 kPa	0.785 kPa
463.3 K	0.958 kPa	–
464.1 K	0.935 kPa	–
464.3 K	0.96 kPa	0.84 kPa
465.5 K	1.054 kPa	–
466.2 K	1.028 kPa and 1.087 kPa	–
466.3 K	–	0.936 kPa
467.4 K	1.116 kPa	–
468.1 K	1.149 kPa	–
468.2 K	–	1.057 kPa
468.3 K	1.165 kPa	–
469.3 K	1.242 kPa	–
470 K	1.259 kPa	–
470.2 K	–	1.11 kPa
470.3 K	1.273 kPa	–
471 K	1.26 kPa	–
471.8 K	1.327 kPa	–
472.2 K	1.381 kPa	1.192 kPa
473.3 K	1.377 kPa	–
474 K	1.484 kPa	–
474.2 K	–	1.324 kPa
474.3 K	1.551 kPa	–
475.4 K	1.567 kPa	–
476.1 K	1.571 kPa	–
476.2 K	1.666 kPa	1.4 kPa
477.6 K	1.691 kPa	–
478.3 K	1.709 kPa and 1.766 kPa	1.559 kPa
479.1 K	1.789 kPa	–
479.8 K	1.808 kPa	–
480.2 K	1.915 kPa	1.679 kPa
481.2 K	2.014 kPa	–
482 K	2.037 kPa	–
482.3 K	2.099 kPa	1.802 kPa
483.3 K	2.204 kPa	–
484.1 K	2.228 kPa	–
484.3 K	2.276 kPa	1.945 kPa
485.3 K	2.4 kPa	–
486 K	2.495 kPa	–
486.2 K	2.488 kPa	2.088 kPa
487.1 K	2.633 kPa	–
487.8 K	2.702 kPa	–
488.2 K	–	2.229 kPa
488.3 K	2.686 kPa	–
489 K	2.881 kPa	–
489.8 K	2.981 kPa	–
490.2 K	2.941 kPa	–
490.3 K	–	2.41 kPa
491.1 K	3.159 kPa	–
492.3 K	–	2.535 kPa
494.3 K	–	2.717 kPa
496.2 K	–	2.889 kPa
498.2 K	–	3.001 kPa
500.3 K	–	3.29 kPa
502.3 K	–	3.213 kPa

Settings	Molar enthalpy of transition or fusion [kcal/mol]	Normal melting temperature [°C]
[1]	–	136.5
[2]	7.17	–

CC(=O)Nc1ccc(Br)cc1 [N-(4-bromophenyl)acetamide]
vapor or sublimation pressure, [1]
Settings	Isothermal thermogravimetry	Nonisothermal thermogravimetry
444.2 K	–	0.304 kPa
446.2 K	0.384 kPa and 0.382 kPa	–
446.3 K	0.353 kPa	–
446.4 K	–	0.366 kPa
447.1 K	0.381 kPa	–
447.7 K	0.394 kPa	–
448.2 K	0.422 kPa	–
448.4 K	–	0.398 kPa
449.4 K	0.415 kPa	–
449.9 K	0.443 kPa	–
450.2 K	0.453 kPa	0.443 kPa
451.3 K	0.447 kPa	–
452.1 K	0.489 kPa	–
452.2 K	0.496 kPa	–
452.3 K	–	0.579 kPa
453.4 K	0.528 kPa	–
453.6 K	0.494 kPa	–
454.2 K	0.539 kPa	–
454.4 K	–	0.621 kPa
455.3 K	0.54 kPa	–
455.9 K	0.584 kPa	–
456.3 K	0.606 kPa	–
456.4 K	–	0.611 kPa
457.6 K	0.605 kPa	–
457.8 K	0.634 kPa	–
458.2 K	0.65 kPa	–
458.3 K	–	0.712 kPa
459.3 K	0.67 kPa	–
459.5 K	0.693 kPa	–
460.2 K	0.732 kPa	–
460.3 K	–	0.793 kPa
461.5 K	0.724 kPa	–
462 K	0.777 kPa	–
462.2 K	0.793 kPa	0.882 kPa
463.5 K	0.793 kPa	–
463.6 K	0.84 kPa	–
464.2 K	0.862 kPa	–
464.3 K	–	0.953 kPa
465.2 K	0.855 kPa	–
465.9 K	0.911 kPa	–
466.1 K	0.943 kPa	–
466.2 K	–	0.998 kPa
467.1 K	0.927 kPa	–
468.2 K	1.011 kPa	–
468.3 K	1.006 kPa	1.147 kPa
469.2 K	1.005 kPa	–
470.2 K	1.098 kPa and 1.075 kPa	–
470.3 K	–	1.074 kPa
471.1 K	1.086 kPa	–
472.1 K	1.208 kPa	–
472.2 K	–	1.398 kPa
472.4 K	1.175 kPa	–
473.2 K	1.17 kPa	–
474.1 K	1.285 kPa	–
474.3 K	–	1.482 kPa
475.3 K	1.239 kPa	–
476.2 K	1.381 kPa	1.497 kPa
478.3 K	–	1.779 kPa
480.2 K	–	1.749 kPa
482.3 K	–	1.937 kPa
484.3 K	–	2.151 kPa
486.2 K	–	2.296 kPa
488.3 K	–	2.466 kPa
490.2 K	–	2.741 kPa
492.2 K	–	2.83 kPa
494.3 K	–	3.134 kPa
496.2 K	–	3.347 kPa
498.3 K	–	3.604 kPa
500.3 K	–	3.812 kPa
502.2 K	–	4.149 kPa
504.3 K	–	4.419 kPa
506.2 K	–	4.593 kPa
508.2 K	–	4.944 kPa
510.2 K	–	5.307 kPa
512.2 K	–	5.584 kPa
514.4 K	–	5.847 kPa
516.2 K	–	6.243 kPa

Settings	Molar enthalpy of transition or fusion [kcal/mol]
[2]	6.21

CC(=O)Nc1ccc(O)cc1 [N-acetyl-p-aminophenol]
vapor or sublimation pressure [kPa], [1]
Settings	Isothermal thermogravimetry	Nonisothermal thermogravimetry
477.3 K	0.194	0.197
478.8 K	0.1996	–
479.3 K	0.206	0.204
480 K	0.225	–
480.8 K	0.2307	–
481.4 K	0.249	0.25
482 K	0.2601	–
482.9 K	0.2539	–
483.2 K	0.276	0.259
483.8 K	0.2861	–
484.7 K	0.2838	–
485.2 K	0.303	–
485.9 K	0.3199	–
486.7 K	0.3264	–
487.3 K	0.336	0.341
487.9 K	0.3679	–
488.8 K	0.3624	–
489.3 K	0.365	0.315
490 K	0.3891	–
490.8 K	0.3978	–
491.2 K	0.409	0.468
491.8 K	0.437	–
492.7 K	0.449	–
493.3 K	0.44	0.447
493.9 K	0.482	–
494.8 K	0.4882	–
495.4 K	0.492	0.504
496 K	0.524	–
496.9 K	0.5169	–
497.2 K	0.554	–
497.9 K	0.5547	–
498.7 K	0.5818	–
499.3 K	0.61	0.669
499.9 K	0.6246	–
500.8 K	0.6364	–
501.4 K	0.677	–
502 K	0.6832	–
502.9 K	0.7129	–
503.2 K	0.733	0.729
503.4 K	–	0.838
503.8 K	0.765	–
504.7 K	0.7889	–
505.2 K	0.815	0.861
505.8 K	0.8468	–
506.7 K	0.8517	–
507.2 K	0.888	0.945
507.9 K	0.9142	–
508.7 K	0.933	–
509.3 K	–	1.037
511.3 K	–	1.207
513.4 K	–	1.178
515.4 K	–	1.41
517.2 K	–	1.544
519.2 K	–	1.696
521.3 K	–	1.757
523.2 K	–	2.012
525.3 K	–	2.197
527.3 K	–	2.32
529.2 K	–	2.607
531.2 K	–	2.823
533.3 K	–	3.064
535.4 K	–	3.295
537.2 K	–	3.552
539.3 K	–	4.01
541.3 K	–	4.144
543.3 K	–	4.653
545.4 K	–	5.059
547.4 K	–	5.373
549.2 K	–	5.759
551.2 K	–	6.208
553.2 K	–	6.719
557.3 K	–	7.824
559.4 K	–	8.304
561.2 K	–	8.944

Settings	Molar enthalpy of transition or fusion [kcal/mol]	Normal melting temperature [°C]
[1]	–	172.5
[2]	6.45	–
